The values that follow come from the NIST ThermoML archive (doi:10.1007/s10765-013-1404-4).

Data set [1] in a line: Molar enthalpy of transition or fusion. The conditions noted are these: Crystal; DSC.
For data set [2] the following is noted: Crystal; DTA.

± gives the expanded uncertainty stated by the source.

For the molecule `CCN(C(=O)N(CC)c1ccccc1)c1ccccc1` [1,3-diethyl-1,3-diphenylurea], the “Molar enthalpy of transition or fusion” value in data set [1] came out at 8.02 ± 0.454 kcal/mol. Further, in data set [2], the Normal melting temperature is 71.87 ± 0.41 °C.
In the same order, the values of `O=[N+]([O-])c1ccccc1Nc1ccccc1` [2-nitrodiphenylamine] are 6.25 ± 0.454 kcal/mol and 74.79 ± 0.41 °C.
The corresponding values for `CCN(N=O)c1ccc([N+](=O)[O-])cc1` [N-nitroso-N-ethyl-4-nitroaniline] are 7.45 ± 0.454 kcal/mol and 118.60 ± 0.41 °C.
Regarding `O=[N+]([O-])c1ccccc1Nc1ccccc1[N+](=O)[O-]` [bis(2-nitrophenyl)amine], the “Molar enthalpy of transition or fusion” value in data set [1] is 4.39 ± 0.454 kcal/mol. For the same molecule, the Normal melting temperature in data set [2] worked out at 172.30 ± 0.41 °C.
Consider `c1ccc(Nc2ccccc2)cc1` [diphenylamine], for which, in data set [1], the “Molar enthalpy of transition or fusion” value turned out to be 4.7 ± 0.454 kcal/mol. Further, the Normal melting temperature in data set [2] was found to be 53.50 ± 0.41 °C.
